Consider two molecules from patent US20200215537A1, “ULTRASENSITIVE CANTILEVER” (3P SENSE LIMITED, priority 2017, published 2020).

What is called Kd is the free concentration of one partner at which half of the binding sites on the other are occupied at equilibrium, for simple one-to-one binding.

One assay has as its system L-VSR. The assay can be described thus: Cantilever binding assay against L-VSR coated cantilevers. The following applies: for biomechanical force / signal response: 50 μM ligand, sodium phosphate buffer pH 7.4, L-VSR coated cantilevers; for signal response over concentration range: all concentrations of ligand. The method, then: (§1) In the case of preparation of unpassivated cantilever, SAMs of D-VSR, L-VSR and inert PEG molecules were diluted to a concentration of 1 μM in pure ethanol. The diluted SAMs were individually injected into glass capillary tubes (King Precision Glass, Claremont, Calif., USA) which were arranged on the functionalization stage. The cantilevers were then functionalized by incubating them with individual SAMS inside the glass capillaries for 20 min. Care was taken to ensure that the hinge region was entirely covered with the SAM solution in order to ensure mechanical connectivity between the transduction arrays and hinge region.
(§2) Finally, learning from enantiomeric molecules, although identical in structure and are mirror images of one another with different physical characteristics, could be used to test the impact of the regulatory connectivity networks on the biomechanical forces involved in molecular interactions. So it was inferred that in chiral species the level of complementarity between a drug and its target will lead to different assemblies across the mirror images of the surface receptors and this can be reflected in the distinguishable biomechanical forces. To test this concept the interaction of the D-VSR and its corresponding mirror image (L-VSR) (see, Cantilever functionalization with surface target molecules) with the antibiotic drug vancomycin was studied. D-VSR is an enantiomer predominantly found in bacterial cell walls whereas L-VSR is not produced by bacteria. […] The mechanical response obtained using a high concentration of Van (50 μM) against 100 μm wide parallel transduction arrays of D-VSR and L-VSR was initially tested. […] In contrast the signal response of Van against L-VSR was very small ˜−200 pN, approximately 20 times smaller than with D-VSR (FIG. 5a). The experiment was repeated using a wide range of different concentrations of Van (0.1-1000 μM) on at least four separate chips.
(§3) Functionalized cantilever chips were mounted in a sealed liquid cell environment and a time-multiplexed optical laser readout system (Scentris, Veeco Instruments Inc., Santa Barbara, Calif., USA) was used to measure the cantilever bending. The laser alignment was considered successful if the difference between the minimum and maximum deflection was <5% when the cell temperature was raised by 1° C. for 10 min followed by 10 min cooling to room temperature. […]
(§4) The biomechanical force data from ligand-receptor interactions were measured as follows: sodium phosphate buffer (pH 7.4, 0.1 M) was injected into the cell for either 3 or 10 min to establish a baseline. […] Cantilever bending signals were measured in a fixed temperature-controlled hood at 25° C. using a liquid flow rate of 30-180 μL min^−1. […]

Assay [1] concerns vancomycin susceptible receptor (VSR). The assay can be described thus: Cantilever binding assay, vancomycin against VSR coated cantilevers. The method, then:
as §1
The finding that a signal response is detectable even when the assembling of array networks is confined to only 30 μm of the geometrical width of the region covered while the corresponding geometeric length is fixed at 500 μm of the cantilever, prompted us to examine whether changing the dimensions of the cantilever itself whilst maintaining the mechanical connectivity of surface receptors has any impact on the signal sensitivity and reproducibility. This is because the dimensions of a sensing element can greatly impact on the signal response in several ways (1) the threshold size of the ligand capture cross-section area that is able to generate mechanical signaling decreases when the size of the sensing element is reduced, (2) the biomechanical force impacting on the sensing element is more pronounced for a narrow sensing element, and (3) the narrower the sensing element, the less rigid it is and the more responsive it will be to molecular forces. Further, continuous mechanical connectivity can be effected by the edging effects at the perimeter of the sensor itself and its impact would be more pronounced for narrower sensing elements (FIG. 1b). The effect on signal response by reducing the conventional cantilever width from 100 μm to 70 μm whilst keeping the length and thickness at 500 μm and 1 μm, respectively, was examined. These dimensions were chosen because they enable the narrowed cantilever to be used with standard instruments without the need for redesigning equipment. In addition, at this width the cantilever is less affected by the capillary forces and static charges which may render careful alignment of the scanning laser at the free-end more difficult. For this experiment vancomycin (Van) as the reporter molecule and vancomycin-susceptible receptor (or VSR)^21 as its target were used. Van is the Food and Drug Administration (FDA)-approved drug of last resort for clinical treatment of MRSA and clostridium difficile infections^38,39. This particular system was chosen because it gives relatively large signals and it has been previously shown that the quantitative Van-VSR binding constants can be measured^21 and so it can be used to redefine the limit of recognition of biologically relevant systems. The entire surface of the cantilever including the hinge region was coated with VSR using glass capillares (See Cantilever functionalization with surface target molecules). Artefacts that produce non-specific signals were overcome by performing differential measurements where the reference mercaptoundecyl tri(ethylene glycol) thiol (PEG)-coated cantilever signals was subtracted from the VSR signals. […] The signal response obtained from all three cantilevers was highly consistent and almost identical over a 60 min time period. Moreover, the compressive signal response was relatively high averaging −400±30 pN with a signal-to-noise ratio (SNR) of 7. […] Next, the impact of different concentrations on signal response initially fixed at 20, 50, 500 and 1000 nM (FIG. 4b-d) was examined. […] The thermodynamic pseudo-equilibrium signal response was attained at 60 and 50 min for 20 nM and 50 nM Van, respectively. In contrast, the thermodynamic pseudo-equilibrium was achieved within 6 min or less for Van concentrations ≥500 nM. […]

For assay [2] the following is noted: SPR; cited from earlier work. A general note: In SPR one partner is held on a chip, and binding of the other changes the refractive index at the surface.
The next assay has as its system D-VSR. Description: Cantilever binding assay against D-VSR coated cantilevers. The method, then:
as §1, §2, §3, §4

For assay [3] the following is noted: solution; cited from earlier work.

Where two headings read alike, the source gives them in different places. A value given as a limit tells only on which side of the number the result lay.

Turning to `CN[C@H](CC(C)C)C(=O)N[C@H]1C(=O)N[C@@H](CC(N)=O)C(=O)N[C@H]2C(=O)N[C@H]3C(=O)N[C@H](C(=O)N[C@H](C(=O)O)c4cc(O)cc(O)c4-c4cc3ccc4O)[C@H](O)c3ccc(c(Cl)c3)Oc3cc2cc(c3O[C@@H]2O[C@H](CO)[C@@H](O)[C@H](O)[C@H]2O[C@H]2C[C@](C)(N)[C@H](O)[C@H](C)O2)Oc2ccc(cc2Cl)[C@H]1O` [Van, vancomycin], the “biomechanical force / signal response” value in the assay with L-VSR was around −200 pN. Further, the “signal response over concentration range” value with L-VSR is reported as “only a small signal response”. The signal response result was “no signal response” in assay [1] (500 pM Van, 100 μm wide cantilevers) and −120 nm in assay [1] (1 μM Van, conventional 100 μm wide cantilevers). Besides, in assay [1] (500 pM Van, pH 7.4, small sized (70 μm wide) cantilever, three separate cantilevers), the “mechanical force / signal response” value is recorded as −400±30 pN. Further, the “Van concentration at which signal response reached a plateau” value in assay [1] (0.0005 μM to 250 μM Van, narrow cantilevers) turned out to be 10 µM. Moreover, the figures for the “time to thermodynamic pseudo-equilibrium signal response” value in assay [1] (20 nM Van) and in assay [1] (50 nM Van) were 60 min and 50 min, respectively. In addition, the biomechanical force response in assay [1] (20 nM Van, small sized cantilever) is recorded as around −500 pN; in assay [1] (50 nM Van, small sized cantilever), around −1500 pN; in assay [1] (500 nM Van, small sized cantilever), around −3000 pN. In assay [1] (1 μM Van, 3 separate small sized cantilevers), this molecule had a mechanical force response of around −5000±400 pN. For the same molecule, the Kd in assay [1] (100 μm and 70 μm cantilevers, read-out: Kd (surface thermodynamic equilibrium dissociation constant, equation (1))) is 500 ± 100 nM; in assay [2], 1000 ± 300 nM; in assay [3], 700 nM. Besides, the “time to thermodynamic pseudo-equilibrium” value in assay [1] (Van concentrations ≥500 nM) was at most 6 min. For the same molecule, the “reversibility of signal response” value in assay [1] (all concentrations of Van) was “reversible”. Moreover, the “mechanical forces arising from [Van] against VSR (plot)” value in assay [1] (large sized cantilever) is around −3800 pN; in assay [1] (small sized cantilever) it was around −6900 pN. In addition, in the assay with D-VSR (50 μM ligand), the “ratio of signal response D-VSR versus L-VSR” value is “approximately 20 times”. The “ligand concentration at which plateau was reached” value in the assay with D-VSR (0.1-1000 μM Van) was 50 µM.

For the molecule ristocetin, in the assay on L-VSR, the “biomechanical force / signal response” value was around −2000 pN and the “signal response over concentration range” value was “remained small compared to D-VSR”. Moreover, the “ratio of signal response D-VSR versus L-VSR” value in the assay on D-VSR (50 μM ligand) is recorded as “approximately 3 times”. Also, in the assay with D-VSR (50 μM ligand, sodium phosphate buffer pH 7.4, D-VSR coated 100 μm wide cantilevers), the “biomechanical force / mechanical response” value is around −5000 pN.
